Test results from paper PMC11778240, “Synthesis and preclinical evaluation of tigilanol tiglate analogs as latency-reversing agents for the eradication of HIV” (Science Advances, 2025).
Read-outs that look alike come from different tables or passages of the source.

What was measured:
PKC-β-I = molecular target: T1, PKC-β-I (Homo sapiens, UniProt P05771); test: Cell-free PKC competition binding assay against 3H-PDBu; conditions: for PKC-β selectivity: Fig. 7A, PKC-β over PKC-δ; for logKi (best-fit value), PKC-β-I: log of Ki in nM
T1 construct: purchased Invitrogen
Description: (§1) With a diverse library of compounds bearing unique functionalities on the A-, B-, and C-rings (Fig. 6), we began to explore how these modifications affect PKC binding (Fig. 7A), NF-κB activation (Fig. 7B), cell permeation and PKC translocation (Fig. 7, C and D), and latency reversal in J-Lat cells (Fig. 8). […] We conducted this assay with phosphatidyl serine vesicles in solution that mimic the cellular membrane and play a critical role in the binding of small molecules to the PKC C1 domain (Fig. 7A) ([64]).
(§2) Cell-free PKC Binding Assay
The protein kinase C (PKC) affinity of EBC-46 and EBC-46 analogs was determined via […]
entails a glass-fiber filtration method to determine bound radioligand. The method of determining the radioligand Kd is also described.
(§3) Tris HCl (Fisher, ≥ 99%, stored at room temperature)
(§4) Phosphatidylserine (Avanti Polar Lipids, porcine, 25 mg/mL CHCl3 solution, stored at - […]
(§5) Bovine serum albumin (Sigma -Aldrich, ≥ 98%, globulin free, protease free, stored at 4 […]
Human PKC-β-I-GST fusion protein (Invitrogen, aliquoted and stored at -78 °C) Human PKC-δ-GST fusion protein (Invitrogen, aliquoted and stored at -78 °C) Glass-fiber filters (Whatman GF/B) […]
(§6) a final concentration of 500 nM.
(§7) Preparation of phosphatidylserine (PS) vesicles :
(§8) For every 96 samples, 3.5 mg phosphatidylserine (140 μL) (25 mg/mL CHCl3 solution) was concentrated by removing chloroform under reduced pressure. The phosphatidylserine residue was resuspended in freshly prepared PKC binding assay buffer (3.5 mL), capped, and then thoroughly mixed by alternating between sonicating and vortexing, in 10 second intervals for 1 minute or until a cloudy white mixture (Branson Sonifier 250, power = 2, 50% duty cycle). The resulting cloudy white mixture (1 mg/mL) was stored on ic e until use.
(§9) Preparation of the "master mix" Solution :
(§10) Constituent Stock concentration (final concentration/amount in “master mix”):
(§11) PS vesicles (0.103 mg/mL)
(§12) Deionized H2O - Final vol of 30 mL
(§13) Preparation of PKC binding assay buffer:
(§14) For every 96 samples, to a 50 mL polypropylene tube was added Tris -HCl (pH 7.4, 1 M, 1.5 mL), KCl (1 M, 3 mL), CaCl2 (0.1 M, 35 μL – conventional isoforms only), and bovine serum albumin (60 mg). This mixture was diluted to 30 mL with deionized H2O and mixed gently. The buffer was […]
(§15) Preparation of PKC isoform solution:
(§16) For every 96 samples, PKC isoform solution was prepared by dissolving a 4 μg aliquot of the indicated recombinant human PKC isoform into 26.5 mL of PKC binding assay buffer. The diluted PKC was stored on ice for immediate use.
(§17) Preparation of PKC “master mix” solution:
(§18) To the PKC-isoform solution was added 1 mg/mL PS vesicles solution (3.30 mL), and 500 nM […]
(§19) The resulting “master mix” solution was vortexed and stored on […]
(§20) Preparation of analog compound dilutions:
(§21) Compound dilutions were prepared with filtered DMSO by serially diluting from a chosen "high" concentration. For the saturation binding experiment (radioligand Kd determination), the maximum radioligand concentration used was 4.0 nM with 2-fold dilutions between data points […]
(§22) the middle of the binding curve.
For the competition binding experiment (analog Ki determination), 7 or 14 concentrations were used to define the inhibition curve, and compounds dilutions changed by factors of 2 or √2 between data points. The concentrations were chosen such that the in-assay concentration for the data points in the middle of the binding curve were approximately equal to the IC50 of the compound (if the IC50 is unknown, an exploratory binding assay is recommended prior to Ki determination). For assays with one compound per sheet, the √2-fold dilutions were prepared for the concentrations in […]
PKC binding assay protocol (Saturation -binding experiment and Competition -binding experiment)
1) Glass-fiber filters were prepared by soaking them in a solution of aqueous polyethyleneimine

PKC-δ = molecular target: T2, PKC-δ (Homo sapiens, UniProt Q05655); test: as above
T2 construct: purchased Invitrogen (Sinobiological for the SUW402 experiment)
Description: as §1, §2
The protein kinase C (PKC) affinity of EBC-46 and EBC-46 analogs was determined via competition with 3H-phorbol-12,13-dibutyrate (3H-PDBu) as described below. This procedure entails a glass-fiber filtration method to determine bound radioligand. The method of determining the radioligand Kd is also described.
as §3, §4, §5
Human PKC-β-I-GST fusion protein (Invitrogen, aliquoted and stored at -78 °C) Human PKC-δ-GST fusion protein (Invitrogen, aliquoted and stored at -78 °C) Glass-fiber filters (Whatman GF/B)
Preparation of 3H -PDBu solution : […]
as §6, §7, §8, §9, §10, §11, §12, §13, §14, §15, §16, §17, §18, §19, §20, §21
isoforms ranges from 0.3 – 0.8 nM. […]
as §22
For the competition binding experiment (analog Ki determination), 7 or 14 concentrations were used to define the inhibition curve, and compounds dilutions changed by factors of 2 or √2 between data points. The concentrations were chosen such that the in-assay concentration for the data points in the middle of the binding curve were approximately equal to the IC50 of the compound (if the IC50 is unknown, an exploratory binding assay is recommended prior to Ki determination). For assays with one compound per sheet, the √2-fold dilutions were prepared for the concentrations in the middle of the curve (e.g., for SUW400, the analog dilutions used were 15000 nM, 7500 nM, […]
PKC binding assay protocol (Saturation -binding experiment and Competition -binding experiment) […]

[1] = HotNM 2.5, HotKdNM 0.37, supplement fit, read-out: Ki (best-fit value), PKC-β-I
[2] = competition against radiolabeled PDBu, Fig. 7A and text, read-out: Ki PKC-β
[3] = HotNM 2.5, HotKdNM 0.62, supplement fit, read-out: Ki (best-fit value), PKC-δ
[4] = competition against radiolabeled PDBu, Fig. 7A and text, read-out: Ki PKC-δ
[5] = log of Ki in nM, HotNM 2.5, HotKdNM 0.62

T1 sequence (P05771 whole entry): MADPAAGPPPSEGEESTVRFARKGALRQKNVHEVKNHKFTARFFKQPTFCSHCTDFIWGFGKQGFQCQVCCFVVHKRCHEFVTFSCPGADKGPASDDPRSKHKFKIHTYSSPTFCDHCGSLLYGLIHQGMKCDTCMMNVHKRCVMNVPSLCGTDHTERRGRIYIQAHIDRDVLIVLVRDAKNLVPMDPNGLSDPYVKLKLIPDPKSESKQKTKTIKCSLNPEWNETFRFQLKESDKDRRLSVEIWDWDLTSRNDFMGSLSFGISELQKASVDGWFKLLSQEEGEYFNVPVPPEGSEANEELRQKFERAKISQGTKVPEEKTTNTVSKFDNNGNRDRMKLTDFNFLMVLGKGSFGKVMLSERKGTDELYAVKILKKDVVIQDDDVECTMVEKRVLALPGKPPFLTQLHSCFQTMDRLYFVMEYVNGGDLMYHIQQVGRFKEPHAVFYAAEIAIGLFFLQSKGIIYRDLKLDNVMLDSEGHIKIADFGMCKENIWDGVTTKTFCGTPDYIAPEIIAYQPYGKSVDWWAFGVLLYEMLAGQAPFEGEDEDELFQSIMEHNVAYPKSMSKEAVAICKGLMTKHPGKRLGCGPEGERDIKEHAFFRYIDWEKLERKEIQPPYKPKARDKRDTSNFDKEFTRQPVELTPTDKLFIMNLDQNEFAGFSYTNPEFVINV
T2 sequence (Q05655 whole entry): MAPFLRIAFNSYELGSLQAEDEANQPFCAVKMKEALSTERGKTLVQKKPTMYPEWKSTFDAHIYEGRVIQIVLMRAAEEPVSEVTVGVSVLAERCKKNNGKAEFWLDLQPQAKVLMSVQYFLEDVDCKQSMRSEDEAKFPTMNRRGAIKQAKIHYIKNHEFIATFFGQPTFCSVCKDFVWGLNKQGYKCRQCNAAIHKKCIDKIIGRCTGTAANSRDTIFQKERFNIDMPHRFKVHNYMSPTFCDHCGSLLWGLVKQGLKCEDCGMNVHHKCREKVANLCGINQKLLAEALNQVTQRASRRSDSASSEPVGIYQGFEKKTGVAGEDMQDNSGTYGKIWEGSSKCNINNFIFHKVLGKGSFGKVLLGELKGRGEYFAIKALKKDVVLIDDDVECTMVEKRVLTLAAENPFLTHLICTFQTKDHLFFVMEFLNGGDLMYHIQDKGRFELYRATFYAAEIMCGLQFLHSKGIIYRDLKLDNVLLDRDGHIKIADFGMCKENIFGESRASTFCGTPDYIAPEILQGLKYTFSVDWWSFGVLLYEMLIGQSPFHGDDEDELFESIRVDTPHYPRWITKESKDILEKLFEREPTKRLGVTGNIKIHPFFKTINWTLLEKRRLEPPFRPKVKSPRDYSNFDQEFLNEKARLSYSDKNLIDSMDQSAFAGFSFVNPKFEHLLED

SMILES | selectivity for PKC-β over PKC-δ (PKC-β-I) | preference for binding PKC-β over PKC-δ (PKC-β-I; Discussion) | PKC-β selectivity (PKC-β-I) | Ki (PKC-β-I; [1]) | Ki (PKC-β-I; [2]) | logKi (best-fit value), PKC-β-I (PKC-β-I; HotNM 2.5, HotKdNM 0.37) | Ki (PKC-δ; [3]) | Ki (PKC-δ; [4]) | logKi (best-fit value), PKC-δ (PKC-δ; [5]) | PKC binding affinity and selectivity in words (PKC-β-I; PKC-β and PKC-δ) | logKi (best-fit value), PKC-δ (PKC-δ; PKC-δ-GST from a different vendor (Sinobiological), HotNM 2.5, HotKdNM 2.94) | Ki (PKC-δ; PKC-δ-GST from a different vendor (Sinobiological), HotNM 2.5, HotKdNM 2.94, read-out: Ki (best-fit value), PKC-δ) | decrease in PKC binding affinity / potency compared to EBC-46 (PKC-β-I; PKC-β and PKC-δ)
C/C=C(\C)C(=O)O[C@@H]1[C@@H](C)[C@@]2(O)[C@H]([C@@H]3C(C)(C)[C@]13OC(=O)[C@@H](C)CC)[C@@H]1O[C@]1(CO)[C@@H](O)[C@]1(O)C(=O)C(C)=C[C@H]12 [EBC-46, Tigilanol tiglate] | twofold | 2.3 × | 2.3 | 1.38 nM | 1.4 nM | 0.1397 | 3.24 nM | 3.2 nM | 0.5102 |  |  |  | 
C/C=C(\C)C(=O)O[C@@H]1[C@@H](C)[C@]2(O)[C@@H]3C=C(C)C(=O)[C@@]3(O)[C@H](O)C(CO)=C[C@H]2[C@@H]2C(C)(C)[C@]12OC(=O)[C@@H](C)CC [SUW400] |  |  | 2.9 | 0.851 nM | 0.85 nM | -0.07019 | 2.53 nM | 2.5 nM | 0.4034 | nearly identical binding affinity and selectivity compared to EBC-46 |  |  | 
C/C=C(\C)C(=O)O[C@@H]1[C@@H](C)[C@@]2(O)[C@@H](C=C(CO)C[C@]3(O)C(=O)C(C)=C[C@@H]23)[C@@H]2C(C)(C)[C@]12OC(=O)[C@@H](C)CC [SUW402] |  |  | 3.7 | 0.118 nM | 0.12 nM | -0.9263 |  | 0.44 nM |  | remarkable affinities in the picomolar range | -0.3561 | 0.44 nM | 
CC=C(C)C(=O)OC1C(C)C2(O)C(C3OC3(CO)CC3(O)C(=O)C(C)=CC32)C2C(C)(C)C12OC(=O)C(C)CC (stereo not drawn) [SUW403] |  |  | 2.7 | 7.9 nM | 7.9 nM | 0.8975 | 21.4 nM | 21 nM | 1.330 |  |  |  | approximately fivefold
C/C=C(\C)C(=O)O[C@@H]1[C@@H](C)[C@@]2(O)[C@H]([C@@H]3C(C)(C)[C@]13OC(=O)C1CCC1)[C@@H]1O[C@]1(CO)[C@@H](O)[C@]1(O)C(=O)C(C)=C[C@H]12 [SUW406] | fourfold |  | 3.8 | 1.98 nM | 2 nM | 0.2968 | 7.5 nM | 7.5 nM | 0.8752 |  |  |  | 
C/C=C(\C)C(=O)O[C@@H]1[C@@H](C)[C@@]2(O)[C@H]([C@@H]3C(C)(C)[C@]13OC(=O)[C@H](C)CC)[C@@H]1O[C@]1(CO)[C@@H](O)[C@]1(O)C(=O)C(C)=C[C@H]12 [SUW407] |  |  | 1.6 | 2.31 nM | 2.3 nM | 0.3637 | 3.73 nM | 3.7 nM | 0.5722 |  |  |  | 
